Tests used:
AVP gene = test: mRNA expression of AVP in primary cultures of rat hypothalamic cells; type: cell-based
Excerpt: Alternatively, the observed in vivo effect of ticagrelor in mice can be the due to a ticagrelor metabolite such as AR-C124910XX or AR-C133913XX, which may bind to hypothalamic cells at a site other than P2Y12 receptor and exert inhibitory effect on the production of AVP. […] Based on this observation on cultured hypothalamic cells and the unequivocal data obtained from the primary cultures of rat inner medullary collecting duct cells, the observed in vivo effect of ticagrelor on decreased AVP production is mediated by the action of one or both metabolites of ticagrelor (AR-C124910XX or AR-C133913XX).

[1] = major metabolite of ticagrelor; cited from earlier work
rodent models of ADPKD = settings: by reducing cAMP production in the kidney; cited from earlier work
rats = settings: administration to rats
Excerpt: The blockade of P2Y12 receptor by PSB-0739 on AVP gene expression in cultured rat hypothalamic cells was studied.

mice = test: urinary concentrating ability and AVP production in mice; type: in vivo; settings: for urinary excretion of AVP: ticagrelor effect dose-dependent
Method: The effect of prasugrel on urinary concentration ability in mice was also tested and the same findings as clopidogrel were observed.
Both clopidogrel bisulfate and prasugrel belong to thienopyridine group of drugs, and thus both are prodrugs that need to be metabolized in the liver releasing their active metabolites that block the platelet P2Y12 receptor.

[2] = test system: rat inner medullary collecting duct cells; test: dDAVP-induced AQP2/AQP3 mRNA expression and cAMP production in primary cultures of rat inner medullary collecting duct cells; type: cell-based
Excerpt: In sum, ticagrelor binds to P2Y12 receptor in medullary collecting duct cells and enhances the effect on dDAVP on the mRNA expression of AQP2 and AQP3 water channels and cAMP production. Thus, the observed decreased urinary concentration in ticagrelor-treated mice was not because of the effect of ticagrelor on renal medullary collecting duct.

vasopressin V2 receptor = vasopressin V2 receptor (Homo sapiens, UniProt P30518); settings: chronic blockade of vasopressin V2 receptor; cited from earlier work
patients = settings: in a vast majority of patients; cited from earlier work
CYP3A4 = CYP3A4 (Homo sapiens, UniProt P08684); settings: cited from earlier work
Sequence of CYP3A4 (P08684 whole entry): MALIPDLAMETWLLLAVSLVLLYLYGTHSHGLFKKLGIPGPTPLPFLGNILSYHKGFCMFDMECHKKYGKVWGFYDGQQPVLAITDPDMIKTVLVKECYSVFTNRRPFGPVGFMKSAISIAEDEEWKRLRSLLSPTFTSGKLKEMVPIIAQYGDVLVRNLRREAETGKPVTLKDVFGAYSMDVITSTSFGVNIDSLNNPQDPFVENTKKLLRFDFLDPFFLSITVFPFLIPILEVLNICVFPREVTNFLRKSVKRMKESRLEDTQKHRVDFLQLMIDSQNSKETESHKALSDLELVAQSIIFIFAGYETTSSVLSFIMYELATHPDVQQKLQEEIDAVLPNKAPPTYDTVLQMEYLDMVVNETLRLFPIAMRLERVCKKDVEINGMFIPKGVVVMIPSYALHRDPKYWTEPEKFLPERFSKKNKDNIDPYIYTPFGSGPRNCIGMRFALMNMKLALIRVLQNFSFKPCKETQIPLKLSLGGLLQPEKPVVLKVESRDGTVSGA

Sequence of vasopressin V2 receptor (P30518 whole entry, species assumed): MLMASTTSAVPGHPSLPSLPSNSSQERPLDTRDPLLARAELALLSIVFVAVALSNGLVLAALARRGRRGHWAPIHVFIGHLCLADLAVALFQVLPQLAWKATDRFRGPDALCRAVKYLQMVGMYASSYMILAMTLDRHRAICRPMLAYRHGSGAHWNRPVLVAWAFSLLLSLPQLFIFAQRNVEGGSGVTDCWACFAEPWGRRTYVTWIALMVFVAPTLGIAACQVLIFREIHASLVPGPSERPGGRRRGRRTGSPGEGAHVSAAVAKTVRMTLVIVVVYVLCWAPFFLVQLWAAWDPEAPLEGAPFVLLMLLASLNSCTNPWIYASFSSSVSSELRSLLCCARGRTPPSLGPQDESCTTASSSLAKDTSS

For `Nc1ncnc2c1ncn2[C@@H]1O[C@H](COP(=O)(O)OP(=O)(O)O)[C@@H](O)[C@H]1O` [ADP], the “effect of PSB-0739 on AVP gene expression” value (AVP gene; cultured rat hypothalamic cells, combination with PSB-0739, 24 hours) was “blocked”.
In the case of `CCCSc1nc(N[C@@H]2C[C@H]2c2ccc(F)c(F)c2)c2nnn([C@@H]3C[C@H](O)[C@@H](O)[C@H]3O)c2n1` [AR-C124910XX], the “where the metabolite is found” value [1] is listed as “mostly in plasma and feces”.
For `CCCSc1nc(N)c2nnn([C@@H]3C[C@H](OCCO)[C@@H](O)[C@H]3O)c2n1` [AR-C133913XX], the “where the metabolite is found” value [1] is given as “urine and feces”.
In the case of `Cc1ccccc1C(=O)Nc1ccc(C(=O)N2CCCC(N(C)C)c3ccccc32)cc1` (centres unmarked) [OPC-31260], the cystogenesis (rodent models of ADPKD) is listed as “consistently inhibited”.
In the case of `Nc1c(S(=O)(=O)O)cc(Nc2ccc(Nc3ccccc3)c(S(=O)(=O)O)c2)c2c1C(=O)c1ccccc1C2=O` [PSB-0739], the “mRNA expression of the AVP gene” value (AVP gene; cultured rat hypothalamic cells, exposed for 24 hours, blockade of P2Y12 receptor) is reported as “significantly increased”.
In the case of `COC(=O)[C@H](c1ccccc1Cl)N1CCc2sccc2C1` [clopidogrel], the AVP production (rats) is reported as “increase”.
In the case of `CC(=O)Oc1cc2c(s1)CCN(C(C(=O)C1CC1)c1ccccc1F)C2` (centres unmarked) [prasugrel], the “protein abundance of AQP2 in the kidney medulla” value (mice; administered to mice) is reported as “significantly increased”, the urine concentrating ability (mice; administered to mice) is reported as “significantly increased” and the “urinary excretion of AVP” value (mice; administered to mice) is reported as “significantly increased”.
With `CCCSc1nc(N[C@@H]2C[C@H]2c2ccc(F)c(F)c2)c2nnn([C@@H]3C[C@H](OCCO)[C@@H](O)[C@H]3O)c2n1` [ticagrelor] the “baseline mRNA expression of AVP” value (AVP gene; cultured hypothalamic cells) was roughly 1.8 fold, the urine concentrating ability (mice; administered to mice) was “dilution of urine” and the “urinary excretion of AVP” value (mice; administered to mice) was “decreased”. For the same molecule, the urine flow (mice; mice, dose-dependent) was “increased”, the “dDAVP-induced increase in cAMP production” value [2] was “did not interfere” and the “mRNA expression of dDAVP-induced AQP2 water channel protein” value [2] was “concentration-dependent increases”. The “mRNA expression of dDAVP-induced AQP3 water channel protein” value [2] was “concentration-dependent increases”.
In the case of `Cc1ccccc1C(=O)Nc1ccc(C(=O)N2CCCC(O)c3cc(Cl)ccc32)c(C)c1` (centres unmarked) [tolvaptan], the cystogenesis (rodent models of ADPKD) is given as “consistently inhibited”, the “endogenous production of AVP” value (vasopressin V2 receptor) is given as “increased” and the adverse effects (patients) is given as “severe polyuria (loss of water in the urine), nocturia (frequent urination in the night), thirst and dry mouth”. The metabolizing enzyme system (CYP3A4) was “metabolized by the CYP3A4 system”.
